Results as given in the RepoRT retention time repository.

Assay: HILIC, Waters ACQUITY UPLC BEH Amide, 100 × 2.1 mm, 1.7 µm; A: water + 0.125% formic acid + 10 mM ammonium formate; B: 5% water + 95% acetonitrile + 0.125% formic acid + 10 mM ammonium formate; gradient (min/%B) 0/100 2/100 7.7/70 9.5/40 10.25/30 12.75/100 17/100
Details: stereoisomer not certain

| Structure (SMILES) | LC retention time |
| --- | --- |
| COc1cc(C=CC(=O)O)cc(OC)c1O [Sinapic acid] | 1.41 min |
| O=c1c(-c2ccc(O)cc2)coc2cc(O)ccc12 [Daidzein] | 1.39 min |
| COC1C(CO)OC(n2ccc(=O)[nH]c2=O)C1O (stereo not given) [3'-O-Methyluridine] | 2.42 min |
| CCOC(=O)OC(C)OC1=C(C(=O)Nc2ccccn2)N(C)S(=O)(=O)c2ccccc21 (stereo not given) [Ampiroxicam] | 0.95 min |
| CC(C)(C#N)c1cc(Cn2cncn2)cc(C(C)(C)C#N)c1 [Anastrozole] | 0.98 min |
| CCCCCCCCCCCCCCCC(=O)OC(CO)CO [2-Palmitoylglycerol] | 0.99 min |
| COC1C(CO)OC(n2ccc(N)nc2=O)C1O (stereo not given) [3'-O-Methylcytidine] | 5.09 min |
| CS(=O)CCCCC(=NO)SC1OC(CO)C(O)C(O)C1O (stereo not given) [Desulfo Glucoraphanin] | 6.61 min |
| CCC(=O)C(CC(C)N(C)C)(c1ccccc1)c1ccccc1 (stereo not given) [Methadone] | 2 min |
| COc1cc2c(=O)c(-c3ccc(O)cc3)coc2cc1O [Glycitein] | 1.32 min |
| CCOC(=O)C(CCc1ccccc1)NC(C)C(=O)N1C(C(=O)O)CC2CCCC21 (stereo not given) [Ramipril] | 1.4 min |
| NCC(=O)O [Glycine] | 8.33 min |
| O=C(O)CNC(=O)C=Cc1ccccc1 [N-Cinnamoylglycine] | 2.95 min |
| CC(=O)CC(c1ccccc1)c1c(O)c2ccccc2oc1=O (stereo not given) [Warfarin] | 0.99 min |
| c1ccncc1 [Pyridine] | 6.63 min |
| CCCc1c(OCCCCc2nn[nH]n2)ccc(C(C)=O)c1O [Tomelukast] | 1.04 min |
| CC1COc2c(C3(N)CC3)c(F)cc3c(=O)c(C(=O)O)cn1c23 (stereo not given) [Pazufloxacin] | 2.49 min |
| O=C1CCC(=O)CC1 [1,4-Cyclohexanedione] | 1.15 min |
| CC(C)CC(NC(=O)CCC(N)C(=O)O)C(=O)O (stereo not given) [gamma-Glutamylleucine] | 8.1 min |
| NC(=O)OCC(COC(N)=O)c1ccccc1 [Felbamate] | 1.2 min |
| NC(=O)NCCCC(N)C(=O)O (stereo not given) [Citrulline] | 8.74 min |
| CSCCC(N)C(=O)O (stereo not given) [Methionine] | 7.37 min |
| CC12CC3CC(C)(C1)CC(N)(C3)C2 [Memantine] | 4.24 min |
| CC1CN(CCCn2c3ccccc3c3ccccc32)CC(C)N1 (stereo not given) [Rimcazole] | 2.87 min |

| Structure (SMILES) | LC retention time |
| --- | --- |
| CC(C)C(O)C(=O)O (stereo not given) [2-Hydroxy-3-methylbutyric acid] | 1.29 min |
| COc1cc2ccc(=O)oc2cc1O [Scopoletin] | 1.16 min |
| CCC(=O)OC(Cc1ccccc1)(c1ccccc1)C(C)CN(C)C (stereo not given) [Propoxyphene] | 2.01 min |
| COc1nc(C)nc(Cl)c1NC1=NCCN1 [Moxonidine] | 3.28 min |
| CC(C)CC(N)C(=O)O (stereo not given) [Leucine] | 7.08 min |
| NC1C(O)OC(CO)C(O)C1O (stereo not given) [Galactosamine] | 8.44 min |
| O=C(C=Cc1ccc(O)c(O)c1)OC1CC(O)(C(=O)O)CC(O)C1O (stereo not given) [Chlorogenic acid] | 6.68 min |
| C=CCC1(C(C)C#CCC)C(=O)NC(=O)N(C)C1=O (stereo not given) [Methohexital] | 6.9 min |
| CN1C2CCC1CC(OC(=O)C(CO)c1ccccc1)C2 (stereo not given) [Atropine] | 4.32 min |
| O=c1[nH]c(=O)c2ncn(C3OC(CO)C(O)C3O)c2[nH]1 (stereo not given) [Xanthosine] | 7.3 min |
| C=Cc1ccccc1 [Styrene] | 8.74 min |
| Nc1ncnc2c1ncn2C1CC2OP(=O)(O)OCC2O1 (stereo not given) [3',5'-Cyclic dAMP] | 7.29 min |
| O=Cc1c[nH]c2ccccc12 [Indole-3-carboxaldehyde] | 1.16 min |
| Nc1ccn(C2CCC(CO)O2)c(=O)n1 (stereo not given) [2,3-Dideoxycytidine] | 4.54 min |
| CCCCCCCCC=CCCCCCCCCCCCC(N)=O [Erucamide] | 1.06 min |
| Cn1c(=N)ccn(C2OC(CO)C(O)C2O)c1=O (stereo not given) [3-Methylcytidine] | 6.99 min |
| CCC(=O)OC(CC(=O)[O-])C[N+](C)(C)C (stereo not given) [Propionylcarnitine] | 6.41 min |
| COc1ccc(C=CC(=O)Nc2ccccc2C(=O)O)cc1OC [Tranilast] | 1.26 min |
| CN1CC(=O)N2C(Cc3c([nH]c4ccccc34)C2c2ccc3c(c2)OCO3)C1=O (stereo not given) [Taldalafil] | 1.19 min |
| CCC(COC(=O)c1cc(OC)c(OC)c(OC)c1)(c1ccccc1)N(C)C (stereo not given) [Trimebutine] | 1.47 min |
| CCCCC(N)C(=O)O (stereo not given) [Norleucine] | 6.99 min |
| CC(=O)C1CCC2C3CCC4=CC(=O)CCC4(C)C3CCC12C (stereo not given) [Progesterone] | 0.97 min |
| CS(=O)CCCCC(=NOS(=O)(=O)O)SC1OC(CO)C(O)C(O)C1O (stereo not given) [Glucoraphanin] | 7.37 min |
| Nc1[nH]c(=O)ncc1F [5-Flurocytosine] | 4.62 min |

| Structure (SMILES) | LC retention time |
| --- | --- |
| CC(NC(CCc1ccccc1)C(=O)O)C(=O)N1CCCC1C(=O)O (stereo not given) [Enalaprilat] | 7.07 min |
| CN(C)C(=N)N=C(N)N [Metformin] | 5.44 min |
| CCOC(=O)OC1(C(=O)OCCl)CCC2C3CCC4=CC(=O)C=CC4(C)C3C(O)CC21C (stereo not given) [Loteprednol Etabonate] | 0.97 min |
| CC(N)C(=O)NC(CCC(N)=O)C(=O)O (stereo not given) [Ala-Gln] | 9.11 min |
| CC(C)C1=CC2=CCC3C(C)(C(=O)O)CCCC3(C)C2CC1 (stereo not given) [Abietic acid] | 1.11 min |
| CC(C)(CO)C(O)C(=O)NCCC(=O)O (stereo not given) [Pantothenic acid] | 3.5 min |
| Cc1cc2nc3c(=O)[nH]c(=O)nc-3n(CC(O)C(O)C(O)COP(=O)(O)OP(=O)(O)OCC3OC(n4cnc5c(N)ncnc54)C(O)C3O)c2cc1C (stereo not given) | 9.52 min |
| CC1CC2C3CCC4=CC(=O)C=CC4(C)C3(Cl)C(O)CC2(C)C1(O)C(=O)CO (stereo not given) [Beclomethasone] | 1.26 min |
| CC(=O)NCCCCC(N)C(=O)O (stereo not given) [N-epsilon-Acetyllysine] | 8.03 min |
| NC(CS)C(=O)O (stereo not given) [Cysteine] | 5.31 min |
| NC(=O)c1[nH]cnc1N [5-Aminoimidazole-4-carboxamide] | 4.18 min |
| CC(=O)OCC(N)C(=O)O (stereo not given) [O-Acetylserine] | 7.67 min |
| Cc1ccccc1-n1c(C)nc2ccccc2c1=O [Methaqualone] | 1.1 min |
| Cc1[nH]cnc1CN1CCc2c(c3ccccc3n2C)C1=O [Alosetron] | 4.19 min |
| NC(N)=NCCC(=O)O [3-Guanidinopropionic acid] | 8.15 min |
| Cn1c(=O)ccn(C2OC(CO)C(O)C2O)c1=O (stereo not given) [3-Methyluridine] | 1.12 min |
| OCCN1CC(O)C(O)C(O)C1CO (stereo not given) [Miglitol] | 8.12 min |
| CC(C)(O)CC(=O)O [beta-Hydroxyisovaleric acid] | 4.55 min |
| COc1ccccc1N1CCN(CCCNc2cc(=O)n(C)c(=O)n2C)CC1 [Urapidil] | 4.58 min |
| CC12CCC(=O)C=C1CCC1C2C(O)CC2(C)C(C(=O)CO)CCC12 (stereo not given) [Corticosterone] | 1.25 min |
| Nc1nc(Cl)nc2c1ncn2C1CC(O)C(CO)O1 (stereo not given) [Cladribine] | 1.95 min |
| O=C1CC(c2ccc(O)cc2)Oc2cc(O)ccc21 (stereo not given) [Liquiritigenin] | 1.3 min |
| CC(=O)CC(C)(C)O [4-Hydroxy-4-methyl-2-pentanone] | 4.88 min |
| Cn1cncc1CC(N)C(=O)O (stereo not given) [3-Methylhistidine] | 9.41 min |

| Structure (SMILES) | LC retention time |
| --- | --- |
| NCC1CCC(C(=O)O)CC1 (stereo not given) [4-Aminomethylcyclohexanecarboxylic acid] | 6.6 min |
| COc1cc2nc(N3CCN(C(=O)c4ccco4)CC3)nc(N)c2cc1OC [Prazosin] | 3.75 min |
| CCCCc1oc2ccccc2c1C(=O)c1cc(I)c(OCCN(CC)CC)c(I)c1 [Amiodarone] | 1.87 min |
| CN1CCCC1C(=O)O (stereo not given) [N-Methylproline] | 7.11 min |
| C[C@](N)(Cc1cnc[nH]1)C(=O)O [alpha-Methylhistidine] | 8.68 min |
| COc1cc(C=Cc2ccc(O)cc2)cc(OC)c1 [Pterostilbene] | 0.98 min |
| COc1ccc2c(c1OC)C(=O)OC2C1c2c(cc3c(c2OC)OCO3)CCN1C (stereo not given) [Noscapine] | 1.31 min |
| CCCCCC=CCC=CCCCCCCCC(=O)OC(CC(=O)[O-])C[N+](C)(C)C (stereo not given) [Linoleoylcarnitine] | 3.1 min |
| CN1CCN(CCCN2c3ccccc3Sc3ccc(Cl)cc32)CC1 [Prochlorperazine] | 2.56 min |
| CC(O)C(N)=O (stereo not given) [Lactamide] | 1.74 min |
| OCCN1CCN(CCCN2c3ccccc3Sc3ccc(C(F)(F)F)cc32)CC1 [Fluphenazine] | 2.74 min |
| O=C(O)C=Cc1cnc[nH]1 [Urocanic acid] | 3.69 min |
| CCN1CCCC1CNC(=O)c1cc(S(N)(=O)=O)ccc1OC (stereo not given) [Levosulpiride] | 4.37 min |
| N#CCc1c[nH]c2ccccc12 [3-Indoleacetonitrile] | 8.02 min |
| O=C1Nc2ccc(Cl)cc2C(C#CC2CC2)(C(F)(F)F)O1 (stereo not given) [Efavirenz] | 0.98 min |
| Nc1c2c(nc3ccccc13)CCCC2 [Tacrine] | 3.86 min |
| CC=CC(=O)N(CC)c1ccccc1C [Crotamiton] | 0.97 min |
| C#CCN(C)C(C)Cc1ccccc1 (stereo not given) [Selegiline] | 1.5 min |
| CCCCC(=O)N(Cc1ccc(-c2ccccc2-c2nn[nH]n2)cc1)C(C(=O)O)C(C)C (stereo not given) [Valsartan] | 1.69 min |
| O=C(O)CNC(=O)c1ccc(O)cc1 [4-Hydroxyhippuric acid] | 5.86 min |
| CC(C)(CO)C(O)C(=O)NCCCO (stereo not given) [Panthenol] | 1.9 min |
| c1ncc2[nH]cnc2n1 [Purine] | 2.44 min |
| CCOC(=O)c1ncn2c1CN(C)C(=O)c1cc(F)ccc1-2 [Flumazenil] | 1.08 min |
